# Counter-ions that a name gives are not always drawn. Non-standard residues stand in square brackets, D forms with d. Residues, ends and D or L forms follow the SMILES beside them. *: point of attachment. Hydrocinnamoyl = O=C(CCc1ccccc1)*; dChg = N[C@@H](C(=O)O)C1CCCCC1; pNA = O=[N+]([O-])c1ccc(N*)cc1; Chg = N[C@H](C(=O)O)C1CCCCC1; Cbz = O=C(OCc1ccccc1)*; PhAc = O=C(Cc1ccccc1)*; Bz = O=C(c1ccccc1)*
# Test system: kallikrein
# Assay: Hydrolysis of tripeptide-p-nitroanilides by kallikrein
# Assay type: biochemical
# Conditions: not given
row,SMILES,hydrolysis by kallikrein (in words)
1,N=C(N)NCCC[C@H](NC(=O)[C@H](Cc1ccccc1)NC(=O)[C@@H]1CCCN1)C(=O)Nc1ccc([N+](=O)[O-])cc1 [A] (H-Pro-Phe-Arg-pNA),hydrolyzed by kallikrein
2,CC(C)[C@H](N)C(=O)NCC(=O)N[C@@H](CCCNC(=N)N)C(=O)Nc1ccc([N+](=O)[O-])cc1 [B] (H-Val-Gly-Arg-pNA),not split by kallikrein at all

# Molecular target: T1, bovine trypsin (Bos taurus, UniProt P00760)
# T1 sequence (P00760 24-246): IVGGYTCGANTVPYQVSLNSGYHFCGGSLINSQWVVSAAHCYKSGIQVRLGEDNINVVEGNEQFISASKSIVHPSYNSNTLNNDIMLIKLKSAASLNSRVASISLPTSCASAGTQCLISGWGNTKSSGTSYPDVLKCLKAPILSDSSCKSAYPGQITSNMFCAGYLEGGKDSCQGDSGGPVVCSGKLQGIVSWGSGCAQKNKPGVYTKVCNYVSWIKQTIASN
# Assay: Activity of bovine trypsin at constant substrate and enzyme concentrations (Table IV)
# Assay type: biochemical
# Conditions: substrate concentration 2 × 10^-4 M; pH 8.4, ionic strength 0.30, 37° C., 405 nm
# Method: The results listed in Table IV were obtained under the following experimental conditions: In a measuring vessel 1.7 ml of tris-imidazole buffer having a pH of 8.4 and an ionic strength of 0.30 were mixed at 37° C. with 0.1 ml of an aqueous trypsin solution having a concentration of 2 NF units of trypsin per ml. To the mixture 0.2 ml of a 2×10^-3 molar solution of the substrate to be tested was added. Thereafter, the quantity of p-nitroaniline released from the substrate by the action of the trypsin was determined by measuring the change in the optical density Δ OD per minute at a wave length of 405 nm.
row,Quantity in nanomoles of p-nitroaniline enzymatically released from the substrate by 1 NF unit of trypsin in 1 minute,SMILES
1,14.2 nmol,"CC(C)[C@H](NC(=O)CCc1ccccc1)C(=O)NCC(=O)N[C@@H](CCCNC(=N)N)C(=O)Nc1ccc([N+](=O)[O-])cc1 [Substrate VIII, N^α -3-Phenylpropionyl-Val-Gly-Arg-pNA.HCl] (Hydrocinnamoyl-Val-Gly-Arg-pNA)"
2,37.9 nmol,N=C(N)NCCC[C@H](NC(=O)CNC(=O)[C@@H](NC(=O)c1ccccc1)C1CCCCC1)C(=O)Nc1ccc([N+](=O)[O-])cc1 [XII] (Bz-[Chg]-Gly-Arg-pNA)
3,19.2 nmol,"CC(C)C[C@H](NC(=O)c1ccccc1)C(=O)NCC(=O)N[C@@H](CCCNC(=N)N)C(=O)Nc1ccc([N+](=O)[O-])cc1 [Substrate IV, N^α -Bz-Leu-Gly-Arg-pNA.HCl] (Bz-Leu-Gly-Arg-pNA)"
4,33.3 nmol,CC(C)[C@@H](N)C(=O)NCC(=O)N[C@@H](CCCNC(=N)N)C(=O)Nc1ccc([N+](=O)[O-])cc1 [XVI] (H-[dV]-Gly-Arg-pNA)
5,28.5 nmol,"CC[C@H](C)[C@H](NC(=O)c1ccccc1)C(=O)NCC(=O)N[C@@H](CCCNC(=N)N)C(=O)Nc1ccc([N+](=O)[O-])cc1 [Substrate III, N^α -Bz-Ile-Gly-Arg-pNA.HCl] (Bz-Ile-Gly-Arg-pNA)"
6,"10,8 nanomoles","CC(C)[C@H](N)C(=O)NCC(=O)N[C@@H](CCCNC(=N)N)C(=O)Nc1ccc([N+](=O)[O-])cc1 [Substrate II, H-Val-Gly-Arg-pNA.2HCl] (H-Val-Gly-Arg-pNA)"
7,25.7 nmol,"CC(C)C[C@H](NC(=O)c1ccccc1)C(=O)N[C@@H](CO)C(=O)N[C@@H](CCCNC(=N)N)C(=O)Nc1ccc([N+](=O)[O-])cc1 [Substrate VII, N^α -Bz-Leu-Ser-Arg-pNA.HCl] (Bz-Leu-Ser-Arg-pNA)"
8,41.9 nmol,N=C(N)NCCC[C@H](NC(=O)CNC(=O)[C@H](NC(=O)c1ccccc1)C1CCCCC1)C(=O)Nc1ccc([N+](=O)[O-])cc1 [XIV] (Bz-[dChg]-Gly-Arg-pNA)
9,17.5 nmol,"CC(C)[C@H](NC(=O)Cc1ccccc1)C(=O)NCC(=O)N[C@@H](CCCNC(=N)N)C(=O)Nc1ccc([N+](=O)[O-])cc1 [Substrate IX, N^α -2-Phenylacetyl-Val-Gly-Arg-pNA.HCl] (PhAc-Val-Gly-Arg-pNA)"
10,19.1 nmol,"CC[C@H](C)[C@H](NC(=O)c1ccccc1)C(=O)N[C@@H](CO)C(=O)N[C@@H](CCCNC(=N)N)C(=O)Nc1ccc([N+](=O)[O-])cc1 [Substrate VI, N^α -Bz-Ile-Ser-Arg-pNA.HCl] (Bz-Ile-Ser-Arg-pNA)"
11,20.0 nmol,N=C(N)NCCC[C@H](NC(=O)CNC(=O)[C@@H](N)C1CCCCC1)C(=O)Nc1ccc([N+](=O)[O-])cc1 [XI] (H-[Chg]-Gly-Arg-pNA)
12,"8,4 nanomoles","CC(C)[C@H](NC(=O)[C@H](Cc1ccccc1)NC(=O)c1ccccc1)C(=O)N[C@@H](CCCNC(=N)N)C(=O)Nc1ccc([N+](=O)[O-])cc1 [N^α --Bz--Phe--Val--Arg--pNA . HCl, reference compound] (Bz-Phe-Val-Arg-pNA)"
13,"0,45 nanomoles","N=C(N)NCCCC(NC(=O)c1ccccc1)C(=O)Nc1ccc([N+](=O)[O-])cc1 (racemic) [N^α --Bz--DL--Arg--pNA . HCl, reference compound]"
14,15.9 nmol,"CC(C)[C@H](NC(=O)c1ccccc1)C(=O)N[C@@H](CO)C(=O)N[C@@H](CCCNC(=N)N)C(=O)Nc1ccc([N+](=O)[O-])cc1 [Substrate V, N^α -Bz-Val-Ser-Arg-pNA.HCl]"
15,28.8 nmol,N=C(N)NCCC[C@H](NC(=O)CNC(=O)[C@H](N)C1CCCCC1)C(=O)Nc1ccc([N+](=O)[O-])cc1 [XIII] (H-[dChg]-Gly-Arg-pNA)

row,SMILES,Quantity in nanomoles of p-nitroaniline enzymatically released from the substrate by 1 NF unit of trypsin in 1 minute
1,CC(C)[C@H](NC(=O)OCc1ccccc1)C(=O)NCC(=O)N[C@@H](CCCNC(=N)N)C(=O)Nc1ccc([N+](=O)[O-])cc1 [XV] (Cbz-Val-Gly-Arg-pNA),41.3 nmol
2,N=C(N)NCCC[C@H](NC(=O)CNC(=O)[C@@H](NC(=O)OCc1ccccc1)C1CCCCC1)C(=O)Nc1ccc([N+](=O)[O-])cc1 [X] (Cbz-[Chg]-Gly-Arg-pNA),46.7 nmol

# Molecular target: T2, urokinase (Homo sapiens, UniProt P00749)
# T2 construct: also urine of healthy test persons
# Assay: Amidolytic splitting by urokinase and other plasminogen activators
# Assay type: biochemical
# Conditions: not given
row,SMILES,splitting by urokinase and other plasminogen activators (in words)
1,CC(C)[C@H](N)C(=O)NCC(=O)N[C@@H](CCCNC(=N)N)C(=O)Nc1ccc([N+](=O)[O-])cc1 [B] (H-Val-Gly-Arg-pNA),rapidly amidolytically split by urokinase

# Molecular target: T3, trypsin (Bos taurus, UniProt P00760)
# T3 construct: b360 concerns trypsin in duodenal juice
# T3 sequence (P00760 24-246): T1 sequence (P00760 24-246)
# Assay: Kinetic constants Km and vmax of substrate hydrolysis by trypsin (Lineweaver-Burk)
# Assay type: biochemical
# Conditions: per NF unit
# Method: The enzyme and the substrate are mixed in a buffer solution, and the hydrolysis reaction is followed for 2 to 30 minutes. The concentration of substate [S] is varied, whereas the enzyme concentration is kept constant. If the extinction (OD=optical density) is plotted in a co-ordinate system as a function of time, a curve is obtained the tangent of which at time zero corresponds to the ideal course of the hydrolysis. By means of this tangent the initial rate of the hydrolysis can be determined.
# If 1/v is plotted against (1/[S]), a Lineweaver-Burk diagram (cf. "Kurzes Lehrbuch der Biochemie" by P. KARLSON, Georg Thieme-Verlag, Stuttgart, 1967, p. 70) is obtained from which vmax and Km can be determined graphically.
# For the determination of the kinetic constants Km and vmax listed in Table I aqueous dilution series of the substrates with concentrations from 0.1 to 2 μmoles/ml were used. […] The value of the quantity of p-nitroaniline formed per minute is a measure for the rate of hydrolysis at a given substrate concentration. […] The kinetic constants Km and vmax were determined from the points of intersection of the curves with the abscissa and the ordinate.
row,Vmax,SMILES
1,4.17 × 10^-3 μmole/min. NF,CC(C)[C@@H](N)C(=O)NCC(=O)N[C@@H](CCCNC(=N)N)C(=O)Nc1ccc([N+](=O)[O-])cc1 [XVI] (H-[dV]-Gly-Arg-pNA)
